Source: patent US10617677B2, “Nuclear transport modulators and uses thereof” (Biogen MA Inc., priority 2012, dated 2020)
Entries after “also recorded” stand apart in the source; their conditions may differ.

Columns and labels:
[1] = test system: inflammation-related CRM1 cargo proteins; experiment: Immunofluorescence of nuclear localization of CRM1 cargos in HeLa and THP-1 cells; assay type: cell-based, human; settings: 1-10 μM Compound 1 + 20 ng/mL TNFα, 4-24 h
Method: HeLa and THP-1 (human acute monocytic leukemia) cells were treated with inflammation inducing factor, TNFα, alone or in combination with 1-10 μM of Compound 1 for 4-24 h, and then were analyzed by immunofluorescence (IF) for the nuclear localization of inflammation-related CRM1 cargo proteins: IκB, Nrf2, HMGB1, FoxP3, FOXO1a, RxRα, PPARγ and NFκB (p65 subunit).
For the detection of IkB, Nrf2, RxRα and PPARγ localization, cells were pre-incubated with 10 μM Compound 1 for 30 minutes, followed by incubation with 20 ng/mL TNFα for 4 hrs in serum free media. […] IκB was detected by the primary rabbit monoclonal (E130) antibody from Abcam (ab32518); Nrf2 was detected by the primary rabbit polyclonal antibody from Santa Cruz (sc722); RxR alpha was detected by the primary rabbit polyclonal antibody from Santa Cruz (sc553); PPAR gamma was detected by the primary rabbit monoclonal […] antibody from Cell Signaling (#2443); Foxo1A was detected by the primary rabbit monoclonal [C29H4] antibody from Cell Signaling (#2880); HMGB1 was detected by the primary rabbit polyoclonal antibody from Abcam (ab18256); FoxP3 was detected by the primary rabbit polyclonal antibody from Abcam (ab10563); NFκB-p65 was detected by the primary rabbit monoclonal [C22B4] antibody from Cell Signaling (#4764). […]

MOG-induced EAE = experiment: MOG-induced experimental autoimmune encephalomyelitis (EAE) murine model; assay type: in vivo, mice; settings: 7.5 mg/kg p.o. starting on study day 11, Monday, Wednesday and Friday
Method: The EAE Model is an accepted model for the study of human CNS demyelinating diseases such as multiple sclerosis. The effects of Compound 1 were investigated in MOG-induced in an EAE murine model in female C57B1/6J mice. […] Compound 1 at 7.5 mg/kg was administered orally starting from day 11 (disease onset) on Monday, Wednesday and Friday for 3 consecutive weeks. The disease was induced by the single intradermal injection of MOG emulsified in Complete Freund's Adjuvant (CFA) on study day 0, followed by intraperitoneal supplemental immunostimulation with pertussis toxin (PT) carried out on study day 0, and again 48 hours later on study day 2.

A549 xenograft tumors = experiment: A549 lung carcinoma xenograft in SCID mice; assay type: in vivo
Method: The A549 cell line was derived from explant culture of alveolar carcinoma tissue from a person. The cells were grown in Ham's F12-K tissue culture media with 10% fetal calf serum and 1% penicillin/streptomycin. Cells were routinely trypsinized and passaged 1:10. Thirty-two (32) female CB-17 SCID mice (Charles River Labs strain code 236), aged 5 to 6 weeks were used with a mean pre-treatment body weight of 16.3 grams. Mice were divided into four (4) groups of eight (8) prior to the initiation of treatment based on tumor volume. On the day of implantation, cells were washed in PBS, trypsinized and resuspended in complete media to a density of 2×10^7 cells/mL prior to being mixed with an equal volume of Matrigel. This mixture was then inoculated subcutaneously into mice in a volume of 0.1 mL using a 23G needle.
Animal weights and condition were recorded daily, and tumors were measured on Mondays, Wednesdays and Fridays with micro-calipers, and tumor volume was calculated as (length×width×width)/2.
Animals with weight loss of more than 20% of their starting weight were euthanized. Mice with weight loss of more than 15% of their starting weight were not treated again until weight loss recovered to less than 5% of their starting weight. Any animals with a tumor volume of more than 1500 mm^3 were euthanized.
Dosing solutions were prepared fresh on each day of dosing. Compound 2 was supplied as a lyophilized powder containing 69.61% Compound 2 with the balance made up of Pluronic F-68 and PVP K29/32. This was prepared by dissolving the lyophilized powder in sterile water. Cisplatin was dissolved at 5 mg/mL in DMSO and diluted 1:10 in sterile water for injection. All test articles were administered in a volume of 0.1 mL/10 g body weight.
Statistical differences between treatment groups were determined using Mann-Whitney Rank Sum or ANOVA tests with a critical value of 0.05.

| Structure (SMILES) | nuclear localization of IκB, Nrf2, HMGB1, FoxP3, FOXO1a, RxRα, PPARγ and NFκB [1] | disease (clinical) score and severity (MOG-induced EAE) | tumor growth versus vehicle control group (mean AUC of tumor volume, one-way ANOVA) (A549 xenograft tumors; Compound 2 5 or 10 mg/kg PO, cisplatin 5 mg/kg IP) | mean tumor volume (A549 xenograft tumors; Day 1, 5 mg/kg PO MWF) | mean tumor volume (A549 xenograft tumors; Day 1, 10 mg/kg PO MWF) | mean tumor volume (A549 xenograft tumors; Day 29, 5 mg/kg PO MWF) | mean tumor volume (A549 xenograft tumors; Day 29, 10 mg/kg PO MWF) |
| --- | --- | --- | --- | --- | --- | --- | --- |
| CC(C)(C)C(=O)NNC(=O)/C=C\n1cnc(-c2cc(C(F)(F)F)cc(C(F)(F)F)c2)n1 [Compound 1, (Z)-3-(3-(3,5-bis(trifluoromethyl)phenyl)-1H-1,2,4-triazol-1-yl)-N′-pivaloylacrylohydrazide] | nuclear localization of the above cargos, even in the presence of TNFα | significantly decreased disease score and severity; also recorded: decrease in disease score and severity |  |  |  |  |  |
| O=C(/C=C\n1cnc(-c2cc(C(F)(F)F)cc(C(F)(F)F)c2)n1)NNC(=O)CN1CCOCC1 [Compound 2, (Z)-3-(3-(3,5-bis(trifluoromethyl)phenyl)-1H-1,2,4-triazol-1-yl)-N′-(2-morpholinoacetyl)acrylohydrazide] |  |  | antitumor effect at both 5 mg/kg and 10 mg/kg doses in a dose dependent manner | 101 mm^3 | 101 mm^3 | 1231 mm^3 | 686 mm^3 |
